According to US9156822B2, “Functionally selective ligands of dopamine D2 receptors” (The University of North Carolina at Chapel Hill, priority 2010, dated 2015):
“Also recorded” adds a separate entry of the source. Read-outs that look alike come from different tables or passages of the source.

Tests used:
5HT2B [1] = target: T1, 5HT2B (Homo sapiens (Human), UniProt P41595); assay: cell-based
5HT1A [2] = target: T2, 5HT1A (Homo sapiens (Human), UniProt P08908); assay: 5HT1A cAMP biosensor; assay type: cell-based
5HT2C [3] = target: T3, 5HT2C (Homo sapiens (Human), UniProt P28335); assay: biochemical
T3 sequence (P28335 33-458, species assumed): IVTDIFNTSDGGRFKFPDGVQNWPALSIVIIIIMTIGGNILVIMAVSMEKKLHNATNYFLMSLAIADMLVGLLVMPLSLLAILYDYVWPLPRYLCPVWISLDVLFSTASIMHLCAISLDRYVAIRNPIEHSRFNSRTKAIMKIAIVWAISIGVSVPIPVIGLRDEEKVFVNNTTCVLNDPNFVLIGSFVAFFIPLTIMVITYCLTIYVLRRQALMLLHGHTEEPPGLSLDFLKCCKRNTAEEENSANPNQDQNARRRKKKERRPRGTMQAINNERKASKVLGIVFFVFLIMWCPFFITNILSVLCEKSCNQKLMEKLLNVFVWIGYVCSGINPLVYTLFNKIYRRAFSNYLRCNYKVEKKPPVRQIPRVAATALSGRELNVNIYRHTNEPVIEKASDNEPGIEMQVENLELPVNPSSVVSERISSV

5HT2C [4] = target: T3, 5HT2C; conditions: read-out: 5HT2C/binding (Ki)
[5] = system: wild-type and β-arrestin-2 knockout mice; conditions: i.p., 5.0 mg/kg (haloperidol 2.0 mg/kg), 30 and 60 min
5HT2C [6] = target: T3, 5HT2C; assay: 5HT2C FLIPR (Ca2+ mobilization); assay type: cell-based
5HT2B [7] = target: T1, 5HT2B; assay: biochemical
H1-histamine receptor = H1-histamine receptor (Homo sapiens (Human), UniProt P35367); assay: H1 binding
Chain of H1-histamine receptor (P35367 whole entry): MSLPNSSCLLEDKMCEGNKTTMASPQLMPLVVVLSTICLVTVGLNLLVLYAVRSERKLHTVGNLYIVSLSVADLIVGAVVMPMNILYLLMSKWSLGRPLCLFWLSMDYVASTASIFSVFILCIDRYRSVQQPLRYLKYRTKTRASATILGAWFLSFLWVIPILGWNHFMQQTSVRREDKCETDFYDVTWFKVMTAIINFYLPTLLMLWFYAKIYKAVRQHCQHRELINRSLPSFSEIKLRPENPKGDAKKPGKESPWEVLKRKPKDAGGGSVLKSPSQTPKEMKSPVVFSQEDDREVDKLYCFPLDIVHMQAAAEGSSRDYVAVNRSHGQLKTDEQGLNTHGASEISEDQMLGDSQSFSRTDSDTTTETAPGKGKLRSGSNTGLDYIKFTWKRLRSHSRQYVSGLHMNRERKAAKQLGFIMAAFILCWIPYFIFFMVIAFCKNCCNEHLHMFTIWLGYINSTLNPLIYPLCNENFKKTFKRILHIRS

5HT1A [8] = target: T2, 5HT1A; assay: 5HT1A binding
5HT2B [9] = target: T1, 5HT2B; conditions: read-out: 5HT2B/binding (Ki)
5HT2A = 5HT2A (Homo sapiens (Human), UniProt P28223); assay: 5HT2A FLIPR (Ca2+ mobilization); assay type: cell-based
5HT2B [10] = target: T1, 5HT2B
hD2 receptors = hD2 receptors (Homo sapiens (Human), UniProt P14416); assay: D2 mediated cAMP GloSensor assay; assay type: cell-based; conditions: for Emax: read-out: cAMP (GloSensor) Emax; as to cAMP (GloSensor) activity in words (merged EC50/Emax cell): key: neutral: Neutral ligands are either antagonists or are inactive
Chain of hD2 receptors (P14416 whole entry): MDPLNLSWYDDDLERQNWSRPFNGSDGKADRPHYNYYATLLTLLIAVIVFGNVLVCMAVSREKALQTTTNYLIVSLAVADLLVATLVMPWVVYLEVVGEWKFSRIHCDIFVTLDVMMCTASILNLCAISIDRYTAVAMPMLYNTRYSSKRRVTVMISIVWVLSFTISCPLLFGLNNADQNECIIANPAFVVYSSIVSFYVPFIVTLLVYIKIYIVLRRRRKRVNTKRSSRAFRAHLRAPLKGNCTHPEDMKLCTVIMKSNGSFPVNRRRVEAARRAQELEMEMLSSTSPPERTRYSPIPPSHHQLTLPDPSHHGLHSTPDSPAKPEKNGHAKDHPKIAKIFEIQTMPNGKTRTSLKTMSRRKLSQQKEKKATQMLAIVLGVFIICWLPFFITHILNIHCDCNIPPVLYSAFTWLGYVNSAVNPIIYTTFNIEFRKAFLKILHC

D2 receptors [11] = target: T4, D2 receptors (Homo sapiens (Human), UniProt P14416); assay: CHO-D2 radioligand binding assay ([3H]N-methylspiperone competition); conditions: read-out: D2 Binding Ki ± SEM
Target sequence in this assay (P14416 whole entry): as above

D2 receptors [12] = target: T4, D2 receptors; assay: D2 β-arrestin recruitment (Tango) assay; assay type: cell-based
Experimental: The next day, cells were plated in white, clear-bottom, 384-well plates (Greiner, 10,000 cells/well, 50 μl/well) in DMEM containing 1% dialyzed fetal bovine serum. […] Data were normalized to vehicle (0%) and quinpirole (100%) controls and regressed using the sigmoidal dose-response function built into GraphPad Prism 4.0.
Target sequence in this assay (P14416 whole entry, looked up): as the sequence (P14416 whole entry) above

hD2L dopamine receptor = hD2L dopamine receptor (Homo sapiens (Human), UniProt P14416); assay: pERK high-content assay; assay type: cell-based
Chain of hD2L dopamine receptor (P14416 whole entry): as above
Experimental: On day 1 of the assay, cells were seeded onto black clear-bottom tissue culture-treated 96-well plates (Greiner, BioOne). On day 2 of the assay, cells were washed with serum-free medium (Ham's F-12, penicillin and streptomycin) and incubated in 100 μL serum-free medium overnight.
Immunofluorescence: Automatic multichannel pipetters were used for liquid handling and multichannel vacuum manifolds for aspirations. Each tested concentration was typically measured in triplicate or quadruplicate. For concentration curves, half-log-dilutions were used. Drug dilutions were prepared in stimulation medium (serum-free medium, 100 mg/L ascorbic acid). 100 μM dopamine and 1 μM PMA (phorbol 12-myristate 13-acetate) were used as positive controls. Medium only was used as a negative control. Specificity of the response was confirmed by pretreatment for 5 min with 10 μM of the antagonist spiperone and in experiments using wild type CHO cells.
Cells were stimulated on day 3 by fast addition of 50 μL equilibrated 3× drug dilutions in a tissue culture incubator for 5 min. Plates were placed on ice, the medium was aspirated, and 100 μL/well of freshly prepared ice-cold fixing buffer (4% formaldehyde and 0.5 mM CaCl2 in PBS) solution was added. After 30 min fixing at room temperature, the plates were washed with 350 μL/well PBS/Ca (0.5 mM CaCl2 in PBS) and permeabilized for 20 min in 100 μL/well 0.3% Triton X-100 in PBS/Ca. […] Plates were washed three times with 250 μL/well washing buffer, post-fixed for 10 min in fixing buffer, washed with 250 μl PBS/Ca, filled with 200 μL/well PBS/Ca, sealed with transparent adhesive plate seals, and stored at 4° C.
The Alexa594 light path was used for the target signal, Alexa488 for whole cell staining, and Hoechst for the nuclear staining. Images were analyzed using the CellProfiler software. […] Concentration curves were analyzed in GraphPad Prism by fitting against a sigmoidal dose-response model and normalization to the dopamine curve.

[13] = HEK293T, isoproterenol-stimulated cAMP
[14] = normalized to quinpirole, negative = inverse agonist
[15] = CHO-D2 membranes, [3H]N-methylspiperone
[16] = HTLA cells, read-out: β-arrestin (Tango) EC50
[17] = normalized to quinpirole (100%)

T1 sequence (P41595 whole entry, species assumed): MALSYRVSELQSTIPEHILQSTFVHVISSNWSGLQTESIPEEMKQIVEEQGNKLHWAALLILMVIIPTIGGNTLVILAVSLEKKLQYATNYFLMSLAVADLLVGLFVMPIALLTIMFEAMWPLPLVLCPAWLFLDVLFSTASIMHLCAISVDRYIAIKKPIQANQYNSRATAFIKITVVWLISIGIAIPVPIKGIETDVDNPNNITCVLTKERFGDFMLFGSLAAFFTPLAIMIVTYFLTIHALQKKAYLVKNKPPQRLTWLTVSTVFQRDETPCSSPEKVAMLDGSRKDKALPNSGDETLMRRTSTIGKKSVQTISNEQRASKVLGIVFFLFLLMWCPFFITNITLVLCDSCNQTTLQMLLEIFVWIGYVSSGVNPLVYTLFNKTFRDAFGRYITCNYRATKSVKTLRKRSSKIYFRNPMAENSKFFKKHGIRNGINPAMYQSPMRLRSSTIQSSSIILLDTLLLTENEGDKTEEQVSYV

Row | SMILES | EC50 (hD2 receptors; [13]) [nM] | Emax (hD2 receptors; [14]) [%] | melting point [°C] | Ki (D2 receptors [11]; [15]) [nM] | β-arrestin (Tango) % activ at 1 μM (D2 receptors [12]) [%] | EC50 (D2 receptors [12]; [16]) [nM] | Emax (D2 receptors [12]; [17]) [%] | cAMP (GloSensor) activity in words (merged EC50/Emax cell) (hD2 receptors) | EC50 (D2 receptors [12]) [nM] | further results
1 | O=C1CCc2ccc(OCCCCN3CCCN(c4cccc(Cl)c4Cl)CC3)cc2N1 [Compound 2, 7-(4-(4-(2,3-dichlorophenyl)-1,4-diazepan-1-yl)butoxy)-3,4-dihydroquinolin-2(1H)-one] |  |  |  |  |  |  |  |  |  | IC50 (5HT2B [1]): 115 nM; EC50 (5HT1A [2]): > 1000 nM; EC50 (5HT1A [2]; read-out: 5HT1A/cAMP (EC50)): 2500 nM; Ki (5HT2C [3]): 0.6 to 250 nM; Ki (5HT2C [4]): 115 nM; catalepsy (latency to move, inclined screen test) ([5]; wild-type mice, listed as UNC0006): do not induce catalepsy; catalepsy (latency to move, inclined screen test) ([5]; β-arrestin-2 knockout mice, listed as UNC0006): induced catalepsy; also recorded: inducing catalepsy; IC50 (5HT2C [6]): 3600 nM; functional mode at 5HT2C (5HT2C [6]): antagonists; Ki (5HT2B [7]): 0.6 to 250 nM; Ki (H1-histamine receptor): 4.5 nM; Ki (5HT1A [8]): 0.6 to 250 nM; Ki (5HT1A [8]; read-out: 5HT1A/binding (Ki)): 60 nM; Ki (5HT2B [9]): 0.6 nM; functional mode at 5HT2A (5HT2A): antagonists; functional mode at 5HT2B (5HT2B [10]): antagonists
2 | O=C1NCCc2ccc(OCCCN3CCCN(c4cccc(Cl)c4Cl)CC3)cc21 [Compound 5, 7-(3-(4-(2,3-dichlorophenyl)-1,4-diazepan-1-yl)propoxy)-3,4-dihydroisoquinolin-1(2H)-one] | 5.6 | -16 | 116 to 117 | 5.7 ± 0.8 | 13 | 8 | 47 |  |  | 
3 | Clc1cccc(N2CCCN(CCCOc3ccc4scnc4c3)CC2)c1Cl [Compound 8, 5-(3-(4-(2,3-dichlorophenyl)-1,4-diazepan-1-yl)propoxy)benzo[d]thiazole] |  | -26 | 93 to 94 |  |  |  |  |  |  | 
4 | O=c1ccc2ccc(OCCCN3CCCN(c4cccc(Cl)c4Cl)CC3)cc2[nH]1 [Compound 15, 7-(3-(4-(2,3-dichlorophenyl)-1,4-diazepan-1-yl)propoxy)quinolin-2(1H)-one] | 13 | 64 | 117 to 118 | 3.4 ± 0.2 |  | 2.2 | 84 |  |  | 
5 | O=c1[nH]c2ccc(OCCCN3CCCN(c4cccc(Cl)c4Cl)CC3)cc2[nH]1 [Compound 19, 5-(3-(4-(2,3-dichlorophenyl)-1,4-diazepan-1-yl)propoxy)-1H-benzo[c]imidazol-2(3H)-one] |  |  | 148 to 150 | 4.5 ± 0.2 |  | 8.5 | 48 | neutral |  | 
6 | Clc1cccc(N2CCN(CCCOc3ccc4cn[nH]c4c3)CC2)c1Cl [Compound 20, 6-(3-(4-(2,3-dichlorophenyl)piperazin-1-yl)propoxy)-1H-indazole] | 9.7 | -22 | 159 to 161 | 104 ± 13 | 45 | 59 | 90 |  |  | 
7 | Clc1cccc(C2CCN(CCCCOc3ccc4scnc4c3)CC2)c1Cl [Compound 21, 5-(4-(4-(2,3-dichlorophenyl)piperidin-1-yl)butoxy)benzo[d]thiazole] |  |  | 79 to 81 |  | 26 | 82 | 81 |  |  | EC50 (hD2 receptors): 21 nM; Emax (hD2 receptors): -27%; Ki (D2 receptors [11]): 42 ± 4 nM
8 | Clc1cccc(C2CCN(CCCOc3ccc4scnc4c3)CC2)c1Cl [Compound 22, 5-(3-(4-(2,3-dichlorophenyl)piperidin-1-yl)propoxy)benzo[d]thiazole] |  |  |  | 75 ± 12 | 59 |  |  | neutral | 51 | EC50 (hD2L dopamine receptor; CHO-hD2L cells, read-out: p-ERK EC50): 58 nM; Emax (hD2L dopamine receptor; normalized to dopamine, read-out: p-ERK Emax): 50%; β-arrestin (Tango) Emax (D2 receptors [12]; [17]): 100%
9 | Clc1cccc(N2CCN(CCCOc3ccc4scnc4c3)CC2)c1Cl [Compound 23, 5-(3-(4-(2,3-dichlorophenyl)piperazin-1-yl)propoxy)benzo[d]thiazole] | 9.8 | -16 | 127 to 129 | 30 ± 5 | 48 | 107 | 91 |  |  | 
10 | O=C1CCc2ccc(Oc3cccc(CN4CCN(c5cccc(Cl)c5Cl)CC4)c3)cc2N1 [Compound 30, 7-(3-((4-(2,3-dichlorophenyl)piperazin-1-yl)methyl)phenoxy)-3,4-dihydro quinolin-2(1H)-one] |  |  | 182 to 183 | 113 ± 18 | 9 |  | 58 | neutral | 297 | 
11 | O=C1NCCc2ccc(OCCCCN3CCC(c4cccc(Cl)c4Cl)CC3)cc21 [Compound 33, 7-(4-(4-(2,3-dichlorophenyl)piperidin-1-yl)butoxy)-3,4-dihydroisoquinolin-1(2H)-one] |  |  | 113 to 114 | 20 ± 3 | 26 |  | 64 | neutral | 24 | 
12 | Clc1cccc(N2CCN(CCCCOc3ccc4scnc4c3)CC2)c1Cl [Compound 36, 5-(4-(4-(2,3-dichlorophenyl)piperazin-1-yl)butoxy)benzo[d]thiazole] |  |  | 93 to 94.5 | 17 ± 3 | 13 |  | 64 | neutral | 59 | 
13 | O=C(CCCN1CCC(O)(c2ccc(Cl)cc2)CC1)c1ccc(F)cc1 [haloperidol, reference compound] |  |  |  |  |  |  |  |  |  | catalepsy (latency to move, inclined screen test) ([5]; β-arrestin-2 knockout mice): inducing catalepsy
